Data: patent publication US4778796A, “ω-(3-pyridyl)alkenamide derivatives and anti-allergenic pharmaceutical compositions containing same” (Dainippon Pharmaceutical Co., Ltd., priority 1985, dated 1988)
Structures can show the parent of a compound that is named as a salt. Where two headings read alike, the source gives them in different places.

Legend:
[1] = test system: histamine-induced contraction of isolated guinea pig trachea; assay: Inhibitory effect on histamine-induced contraction of isolated guinea pig trachea; set-up: species or system guinea pig (male Hartley); settings: 3×10^-5 M histamine; isolated guinea pig trachea; read-out: Anti-hist. activity IC50
Protocol: (2) Inhibitory effect on histamine-induced contraction of isolated guinea pig trachea:
Male Hartley guinea pigs (400-700 g) were used. Zig-zag strips of guinea pig trachea were prepared by the method of Emmerson and Mackay [cf. J. Pharm. […] Dose-response curves for histamine were obtained before and 5 minutes after the addition of test compounds. Inhibitory rate was calculated from contraction heights in 3×10^-5 M of histamine without vs. with test compound.

5-lipoxygenase = molecular target: T1, 5-lipoxygenase (Cavia porcellus, UniProt A0A286X958); assay: Inhibitory effect on 5-lipoxygenase activity in guinea pig leukocytes; format: biochemical, guinea pig (male Hartley); settings: 10^-4 M
T1 construct: The cytosol fraction of peritoneal exudate cells from male Hartley guinea pigs (400-700 g) was used as 5-lipoxygenase; from tissue; host or cells: cytosol fraction of peritoneal exudate cells (leukocytes) of male Hartley guinea pigs
T1 sequence (A0A286X958 1-674): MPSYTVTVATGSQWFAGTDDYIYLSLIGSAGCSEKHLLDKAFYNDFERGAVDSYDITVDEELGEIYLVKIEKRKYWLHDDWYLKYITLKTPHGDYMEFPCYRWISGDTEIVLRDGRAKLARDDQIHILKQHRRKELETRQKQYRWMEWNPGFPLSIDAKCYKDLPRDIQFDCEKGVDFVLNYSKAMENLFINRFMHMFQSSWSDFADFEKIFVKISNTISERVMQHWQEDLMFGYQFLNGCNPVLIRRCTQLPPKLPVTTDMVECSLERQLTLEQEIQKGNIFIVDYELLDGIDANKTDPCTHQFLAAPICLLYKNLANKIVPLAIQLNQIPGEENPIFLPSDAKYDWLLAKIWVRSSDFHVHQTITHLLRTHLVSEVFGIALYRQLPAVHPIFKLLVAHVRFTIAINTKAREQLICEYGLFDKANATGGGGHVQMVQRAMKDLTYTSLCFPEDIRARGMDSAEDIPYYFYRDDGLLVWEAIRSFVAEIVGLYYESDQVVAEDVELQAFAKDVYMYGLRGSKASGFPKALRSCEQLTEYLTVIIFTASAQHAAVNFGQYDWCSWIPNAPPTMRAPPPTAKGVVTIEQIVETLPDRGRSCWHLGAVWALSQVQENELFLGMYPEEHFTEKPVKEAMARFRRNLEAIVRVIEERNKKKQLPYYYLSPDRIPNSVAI
Protocol: (1) Inhibitory effect on 5-lipoxygenase activity in guinea pig leukocytes:
This test was carried out by the method of Miyamoto and Obata (cf. "Perspectives in Prostaglandin Research," ed. by Y. Shiokawa et al., Excepta Medica, Amsterdam-Oxford-Princeton, 1983, p78) with minor modifications.
The cytosol fraction of peritoneal exudate cells from male Hartley guinea pigs (400-700 g) was used as 5-lipoxygenase. The standard reaction mixture contained 50 mM potassium phosphate buffer, 1 mM CaCl2, 1 mM glutathione, 1 mM adenosine triphosphoric acid, 10 μM indomethacin and the enzyme. The mixture was incubated for 5 minutes at 30° C. after addition of [1-^14 C]arachidonic acid (0.02 μCi). The reaction was terminated by addition of 0.6 ml of the cold organic solvents (diethyl ether/methanol/0.2M citric acid=30/4/1). The organic layer (300 μl) was applied onto a precoated silica gel 60F254 glass plate (E. Merck, West Germany). Radioactivity on the plate was monitored by a radiochromatogram scanner (Packard, U.S.A.). 5-Lipoxygenase activity was calculated according to the following equation. [formula]
The effects of the test compounds were expressed in terms of percent inhibition.

[2] = Acute lethal toxicity in mice; settings: mouse, in vivo; oral, mortality observed for two weeks
Protocol: Test 3 Acute lethal toxicity in mice
Test compounds were suspended in a 0.5% aqueous tragacanth solution. LD50 values were calculated according to the method of Litchfield and Wilcoxon [cf. J. Pharmacol. Exp. Ther., 96, 99 (1949)].

human basophils = assay: Inhibitory effect on histamine release induced by anti-human IgE antibody from healthy human basophils; format: cell-based; settings: Homo sapiens, read-out: Histamine release inhibit. IC50
Protocol: (3) Inhibitory effect on histamine release induced by anti-human IgE antibody from healthy human basophils:
Basophils from nonallergic volunteers were collected by the method of Levy and Osler [cf. […] The cells were washed once with a cold Tris-A buffer at pH 7.4 (25 mM Tris, 120 mM NaCl, 5 mM KCl and 0.03% human serum albumin) containing 4 mM EDTA and twice with Tris-A buffer. After washing, the cells were resuspended at 5-10×10^6 leukocytes/ml in Tris-ACM buffer at pH 7.6 (Tris-A buffer, 0.6 mM CaCl2 and 1 mM MgCl2). One ml of the cell suspension was incubated with 0.1 ml of a solution of test compound or vehicle for 15 minutes at 37° C., and then for further 45 minutes with 0.1 ml of anti-human IgE antibody. After ice-cooling, the reaction mixtures were centrifuged at 1,200 rpm for 8 minutes at 4° C. The supernatant fluids and the cells were analysed separately for histamine by a modification of the spectrophotofluorometric technique of Shore et al. [cf. […] Histamine release rate was calculated according to the following equation. [formula] A: total histamine (supernatant+cell) B: supernatant histamine without anti-IgE
C: supernatant histamine with anti-IgE
Inhibitory rate was calculated from histamine release rates without vs. with test compound.

experimental asthma = assay: Inhibitory effect on experimental asthma in rats; format: in vivo, rat (male Wistar); settings: Rattus norvegicus, po
Protocol: (2) Inhibitory effect on experimental asthma in rats: This test was carried out by the method of Church and Miller [cf. Brit. […] Male Wistar rats (200-250 g) were sensitized by an intraperitoneal injection of 1 ml of a 0.01% egg albumin solution containing 1 mg of Al(OH)3. Two weeks later, the rats were anesthetized with 1.3 g/kg of urethane. The trachea and jugular vein were cannulated. Respiratory volume and velocity were measured by attaching one end of the tracheal cannula to respiratory volume meter connected to a carrier amplifier and an integrator. The rats were challenged by an intravenous injection of 4 mg/kg of egg ablumin 30 minutes after the anesthesia. Test compounds, dissolved or suspended in a 0.5% aqueous tragacanth solution, were administered orally 1 hour before the antigen challenge. Each group of 4 rats was used for each dose of the test compound. ED50 values were calculated from the best fit linear regression line of inhibitory rates of respiratory volume and velocity in each dose.

[3] = test system: contact hypersensitivity to oxazolone; assay: Inhibitory effect on contact hypersensitivity to oxazolone in mice; format: in vivo, mouse (male ICR); settings: topical, 1.0 mg/ear; 24 hours after challenge
Protocol: (3) Inhibitory effect on contact hypersensitivity to oxazolone in mice:
This test was carried out by the method of Evans et al. [cf. Brit.
Male ICR mice (18-20 g) were used. The abdominal region of the mice was carefully clipped with an electric clipper, and 0.1 ml of a 0.5 w/v % oxazolone solution in absolute ethanol was gently rubbed into the clipped area. Five days after the sensitization 20 μl of a 0.5 w/v % oxazolone solution in acetone or chloroform, or the solution containing test compound was applied to both sides of the right ear. The left ear was not treated. Twenty-four hours after the challenge, the animals were sacrificed with diethyl ether. The circular parts (5.5 mm in diameter) of both ears were removed by punching and then weighed. The inhibitory rate was determined by comparing the ear swelling of the mice treated with oxazolone containing test compound with that of the mice treated with oxazolone. Each group of 8 mice was used for each dose of the test compound.

[4] = test system: passive cutaneous anaphylaxis (PCA); assay: Inhibitory effect on passive cutaneous anaphylaxis (PCA) in rats; format: in vivo, rat (male Wistar); settings: Rattus norvegicus, po, read-out: Inhibition (PCA in rats)
Protocol: (1) Inhibitory effect on passive cutaneous anaphylaxis (PCA) in rats:
This test was carried out by the method of Perper et al. [cf.
Male Wistar rats (130-180 g) were injected with 0.1 ml of a dilute solution of mouse antiserum to egg albumin in two sites of the shaved ventral skin. Forty-eight hours later each rat was challenged by an intravenous injection of 2 mg of the antigen together with 1 ml of a 0.5% Evan's blue saline solution. The rats were sacrificed 30 minutes after the challenge. The area of the blueing lesions was measured on the undersurface of the skin. The average value of the two lesions of each rat was regarded as the response of the rat. Test compounds in a dose of 20 mg/kg, dissolved or suspended in a 0.5% aqueous tragacanth solution, were administered orally 1 hour before the antigen challenge. The inhibitory rate was determined by comparing the responses of the rats given each test compound with those of the rats given only a 0.5% aqueous tragacanth solution. Each group of 3 rats was used for each test compound. The mouse antiserum to egg albumin was produced by the method of Levine and Vaz [cf. Int. Arch. Allergy Appl.

CN1CCC(=C2c3ccccc3CC(=O)c3sccc32)CC1 [Ketotifen fumarate, reference compound]
IC50 [1]: 2.9 nM
5-lipoxygenase inhibiting activity (in words) (5-lipoxygenase): did not exhibit any significant inhibiting activity
inhibition at 100 µM (5-lipoxygenase; read-out: 5-Lipoxygenase inhibit. activity, Inhibition): 11.5%
LD50 at 336 h [2]: 537 mg/kg
IC50 (human basophils): > 100000 nM
ED50 (experimental asthma; read-out: ED50, respiratory velocity): 20.5 mg/kg
ED50 (experimental asthma; read-out: ED50, respiratory volume): 22.6 mg/kg
% Inhibition of ear swelling [3]: 49.0%
inhibition in vivo at 20 mg/kg [4]: 54.7%
